From US4636496A, “Compositions inhibiting murine MXT ductal carcinoma” (Wayne State University, priority 1986, dated 1987)
Entries after “also recorded” stand apart in the source; their conditions may differ.

Key:
[1] = system: MXT Mouse Mammary Ductal Carcinoma; experiment: Subcutaneous treatment of early stage, hormone-dependent MXT mouse mammary ductal carcinoma; type: in vivo
[2] = target: T1, Porcine Endometrial Estrogen Sulfotransferase (Sus scrofa, UniProt A0A286ZW98); experiment: Inhibition of porcine endometrial estrogen sulfotransferase; type: biochemical; conditions: compared within Table III
T1 construct: from tissue; host or cells: porcine endometrium
T1 sequence (A0A286ZW98 1-296): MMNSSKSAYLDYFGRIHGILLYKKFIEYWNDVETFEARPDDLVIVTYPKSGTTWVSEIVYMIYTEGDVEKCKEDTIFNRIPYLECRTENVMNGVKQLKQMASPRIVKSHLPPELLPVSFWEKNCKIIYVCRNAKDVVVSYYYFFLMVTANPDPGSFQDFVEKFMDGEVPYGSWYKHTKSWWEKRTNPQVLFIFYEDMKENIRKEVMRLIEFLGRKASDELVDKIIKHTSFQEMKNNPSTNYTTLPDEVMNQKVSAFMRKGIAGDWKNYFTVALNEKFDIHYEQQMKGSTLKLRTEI
Description: Compounds prepared in the foregoing examples were evaluated as inhibitors of porcine estrogen sulfotransferase as taught by Rozhin et al., J. Biol. Chem., 252:7214-7220 (1977) and Brooks et al., U.S. Pat. No. 4,496,555.

[3] = system: Mammary Tumors Induced by Dimethylbenz(a)anthracene; experiment: Effects on mammary tumors induced by dimethylbenz(a)anthracene (DMBA), s.c. injection for 35 days; type: in vivo, Sprague-Dawley rats; conditions: for Mean tumor volume / Mean tumor no. (no. tumors/rat): 24 mg/kg s.c., 35 days, 7-10 rats/group, mean ± S.D.; for Mean tumor volume: control (None) 1.48 ± 2.09; for Mean tumor no. (no. tumors/rat): control (None) 3.30 ± 2.60; for significance of treatment results (in words): compared to control tumors, Student's t test
From the text: Chemicals and Reagents. Estrone, 17-beta-estradiol 3-benzoate, estrone sulfate, aryl sulfatase (EC 3.1.6.1), beta-glucuronidase (EC3.2.1.31), 7,12-dimethylbenz(a)anthracene (DMBA), and 5-fluorouracil were obtained from Sigma Chemical Co. (St. Louis, Mo.). 4-Nitroestrone 3-methyl ether, 4-nitroestrone, and 2,4-dinitroestrone were synthesized by the procedures of Tomson et al., supra.
Animals. Virgin female Sprague-Dawley rats (The Charles River Co., Wilmington, Mass.) were housed 4 to 6/cage in a light (12 hr/day)--and temperature (24°)--controlled room and given a diet of Wayne Lab-Blox laboratory chow (Allied Mills, Inc., Chicago, Ill.) and tap water ad libitum. At 50 days of age, rats were intubated with DMBA (10 mg/100 g body weight) dissolved in sesame oil (20 mg/ml). Beginning at Day 45 after intubation, all animals were weighed and palpated once per week. Tumor volumes were calculated by measuring 2 diameters with a caliper and the third dimension with a ruler, then by substituting values:
where a, b, and c are the 3 different diameters of the tumor. The agreement of the in vivo tumor volume and measurements of excised tumors identified at necropsy was 95 to 99%. When about 75% of rats had palpable tumors (81 to 92 days after intubation), the animals were randomized, excluding rats with tumors larger than 2.00 ml and rats with more than 5 tumors/animal. The mean initial tumor volumes in control and treated groups ranged between 0.4 and 0.9 cu cm over the various experiments. When necessary, ovariectomy (ether anesthesia) was performed on the first or second day after the initiation of the study. The significance of difference between treatment groups was examined by Student's t test.
Estrogen derivatives (>99% pure by thin-layer chromatography) were injected s.c. daily (Monday to Friday). After distribution in SSV (steroid-suspending vehicles, 0.9% NaCl solution with 0.5% sodium carboxymethyl-cellulose-7, 0.4% polysorbate; and 0.9% benzylalcohol, obtained from the National Cancer Institute), the steroids (20 mg/ml) were administered at 0.12 to 54 mg/kg body weight. The suspension was sonicated before use to achieve uniform distribution. 17-Beta-estradiol 3-benzoate was dissolved directly in sesame oil to a concentration of 2.5 mg/ml; 5 fluorouracil was dissolved in water (25 mg/ml). The control group was given injections of SSV or sesame oil alone.
The toxicity of all antitumor agents was determined by comparing body weights of treated and control animals.
Postmortem Examination and Histopathology of Tumors. Rats were selected for colchicine injections (2 mg/kg body weight) 2 hr prior to necropsy to obtain an accurate measurement of mitotic indices of tumors. Animals were sacrificed with CO2 gas or bled to death via the abdominal aorta. Tumors and tissues were removed and preserved in 10% neutral buffered formalin for histopathological examination. Gross anomalies of abdominal, thoracic, and cranial cavities were recorded. Uteri were removed, trimmed, and weighed fresh. Ovaries, adrenals, and pituitaries were trimmed and weighed after fixation.
Histopathological observations on hematoxylin-and iosin-stained tumor and organ sections were performed, and comparisons between the control and treated groups were carried out using computer analysis. The microscopic parameters used to judge the degree of anaplasia in DMBA-induced mammary neoplasms, when treated animals were compared to controls, were: (a) the type of epithelium or mammary tissue involved; (b) the degree of encapsulation of the neoplasm; (c) the number of mitotic figures observed; (d) the extent of stroma invasions of the neoplastic epithelium; (e) the severity of lymphocytic infiltration of the neoplasms; and (f) the regressive, degenerative, or vacuolative changes in the neoplastic epithelium. […] Histological examination was performed on all mammary tumors. […]

[4] = system: hormone dependent mammary tumors, induced by 7,12-dimethylbenz(a)anthracene; conditions: cited from earlier work

Question: Which results are given for `C[C@]12CC[C@@H]3c4cccc([N+](=O)[O-])c4CC[C@H]3[C@@H]1CC[C@@H]2O` [4-Nitroestra-1,3,5(10)-trien-17-beta-ol]?
Answer: growth of MXT mouse mammary ductal carcinoma (in words) ([1]; mouse, in vivo): inhibited the growth of MXT mouse mammary ductal carcinoma; also recorded: shown to inhibit the growth of murine MXT mammary ductal carcinoma; T/C Value Day 39 (%) ([1]; s.c. 200 mg/kg, QD 1-19): 8.2%; Time for Median Tumor to Reach 500 mg ([1]; s.c. 200 mg/kg, QD 1-19, control 18): 45; estrogen sulfotransferase inhibitory activity (in words) [2]: most active compound

Question: What does the source list for `C[C@]12CC[C@@H]3c4ccc(O)c([N+](=O)[O-])c4CC[C@H]3[C@@H]1CCC2=O` [4-Nitroestrone, 4-nitroestrone]?
Answer: Mean tumor volume [3]: 0.75 ± 0.10 cu cm; Mean tumor no. (no. tumors/rat) [3]: 1.95 ± 2.60 no. tumors/rat; significance of treatment results (in words) [3]: insignificant

Question: With `C[C@]12CC[C@@H]3c4cc([N+](=O)[O-])c(O)c([N+](=O)[O-])c4CC[C@H]3[C@@H]1CCC2=O` [2,4-Dinitroestrone, 2,4-dinitroestrone] as the compound, how does the Mean tumor volume [3] read?
Answer: 1.14 ± 1.37 cu cm

Question: What about the “Mean tumor no. (no. tumors/rat)” value [3] of the same compound?
Answer: 2.90 ± 1.67 no. tumors/rat

Question: What about the “significance of treatment results (in words)” value [3] of the same compound?
Answer: insignificant

Question: Which Mean tumor volume [3] does the source give for `COc1c(Br)cc2c(c1Br)CC[C@@H]1[C@@H]2CC[C@]2(C)C(=O)CC[C@@H]12` [2,4-Dibromoestrone 3-methyl ether, 2,4-dibromoestrone 3-methyl ether] here?
Answer: 1.24 ± 1.07 cu cm

Question: And the “Mean tumor no. (no. tumors/rat)” value [3]?
Answer: 4.26 ± 2.51 no. tumors/rat

Question: What about the “significance of treatment results (in words)” value [3] of the same compound?
Answer: insignificant

Question: With `COc1ccc2c(c1[N+](=O)[O-])CC[C@@H]1[C@@H]2CC[C@]2(C)C(=O)CC[C@@H]12` [4-Nitroestrone 3-methyl ether, 4-Nitroestrone 3-Methyl Ether] as the compound, how does the Mean tumor volume [3] read?
Answer: 0.05 ± 0.05 cu cm

Question: And the “Mean tumor no. (no. tumors/rat)” value [3]?
Answer: 1.35 ± 0.40 no. tumors/rat

Question: And the “growth of hormone dependent mammary tumors (in words)” value ([4]; DMBA-induced)?
Answer: found to inhibit the growth of hormone dependent mammary tumors

Question: What about the “route of administration to which utility is limited (in words)” value ([4]; particularly intraperitoneal or subcutaneous injection) of the same compound?
Answer: essentially limited to parental administration
